Experimental data from patent US10414745B2, “Phenol derivatives to treat cancer” (FUNDACIÓN MEDINA. CENTRO DE EXCELENCIA EN INVESTIGACIÓN DE …, priority 2015, dated 2019).
Like-named read-outs stand apart in the source and are kept apart here.

What was measured:
[1] = test system: Cancer Stem Cells MiaPaca_2; test: MTT assay, synergism with Gemcitabine, Cancer Stem Cells MiaPaca_2; type: cell-based; settings: Homo sapiens, MIA PaCa-2; Cancer Stem Cells MiaPaca_2, Gemcitabine alone; read-out: IC50, dose-response curve of Gemcitabine
Experimental: In order to study if treatment with MDN-0090 could be used in synergism with the most common pancreatic chemotherapic drug (Gemcitabine), MTT assay was performed using tumor cell lines (MiaPaca_2 and BxPC3) and cancer stem cells (MiaPaca_2 and BxPC3). In this way different Gemcitabine concentrations (0.00025-5 μM) were used with MDN-0090 dose response curves (0.39-50 μM) and vice versa. With this assay, we observed that the activity of both compounds (Gemcitabine and MDN-0090) increased when were administered together. (Tables 14-19)

MiaPaca_2 = test: MTT assay in MiaPaca_2 tumoral pancreatic cell line; type: cell-based; settings: Homo sapiens, MIA PaCa-2; 72 hours of treatment; read-out: ED50 MiaPaca_2 (MTT assay)
Experimental: (§1) The activity of the compounds was detected using tumoral pancreatic cell lines (MiaPaca-2 and BxPC3). For this purpose MTT test was used. Cells were seeded at […], and treated with the compound during 72 hours.

BxPC3 = test: MTT assay in BxPC3 tumoral pancreatic cell line; type: cell-based; settings: Homo sapiens, BXPC-3; 72 hours of treatment; read-out: ED50 BxPC3 (MTT assay)
Experimental: as §1

MiaPaca 2 cell line = test: ApoTox-Glo Triplex Assay (viability, citotoxicity, apoptosis); type: cell-based; settings: Homo sapiens, MIA PaCa-2, MiaPaca_2, 72 hours of treatment
Experimental: The MiaPaca 2 cell line was used for further evaluation of the MDN-0089, MDN-0090, MDN-0092 and MDN-0093 activity. The ApoTox-Glo™ Triplex Assay was used to evaluate three parameters (viability, citotoxicity and apoptosis).
Viability: The live-cell protease activity is restricted to intact viable cells and is measured using a fluorogenic, cell-permeant, peptide substrate (glycylphenylalanyl-aminofluorocoumarin; GF-AFC). The substrate enters intact cells where it is cleaved by the live-cell protease activity to generate a fluorescent signal proportional to the number of living cells
Cytotoxicity: Fluorogenic cell-impermeant peptide substrate (bis-alanylalanyl-phenylalanyl-rhodamine 110; bis-AAF-R110) is used to measure dead-cell protease activity, which is released from cells that have lost membrane integrity. Because bis-AAF-R110 is not cell-permeant, essentially no signal from this substrate is generated by intact, viable cells
Apoptosis: The assay uses the Caspase-Glo® Assay Technology by providing a luminogenic caspase-3/7 substrate, which contains the tetrapeptide sequence DEVD, in a reagent optimized for caspase activity, luciferase activity and cell lysis.

MiaPaca_2 cell line = test: CFSE assay (cell cycle inhibition, High content screening); type: cell-based; settings: Homo sapiens, MIA PaCa-2; MiaPaca_2, 72 hours of treatment; read-out: ED50 CFSE assay
Experimental: To evaluate the potency of the MDN-0089, MDN-0090, MDN-0092 and MDN-0093, dye CFSE and High content screening (HCS) equipment were used. MiaPaca_2 cell line was used. Cells were seeded in 96 wells plates at 10.000 cells/well. Medium was removed and compounds and standards were added in fresh medium at different concentrations, (1 μL of compound/200 μL fresh medium). The DMSO concentration was 0.5% in all wells. After 72 hours of incubation (37° C., 5% CO2), plates were read in HCS equipment.

pERK1/2 = test: Western blot pERK1_2 (Ras/Raf/MEK/ERK pathway inhibition); type: cell-based; settings: 24 hours of treatment, untreated 0.38
Excerpt: Western blot technique was used, using an Odissey Licor equipment to read the membranes. pERK1_2 antibody was used as first antibody and as second antibody we used anti-mouse antibodies. Then, the membranes were quantified using β-actin.

HepG2 = test: Cytotoxicity on HepG2; type: cell-based; settings: for activity effect on HepG2 (in words): 72 hours; for IC50: Homo sapiens, HepG2, 72 hours, read-out: IC50 Cytoxicity
p-ERK = test: AlphaScreen Surefire p-ERK kit assay; type: cell-based; settings: 24 hours of treatment, read-out: Inflexion point (AlphaScreen)
Experimental: This effect was checked for MDN-0090 with a p-ERK kit (Perkin Elmer). Cells were seeded into 96 wells/plate at 75000 cells/well. 24 hours later the medium was removed and the compound was added with fresh medium. After 24 hours of treatment, cells were lysed. 15 μL of the lysate and 15 μL of reagents were added. After 2 hours of incubation, plate was read using an EnVision equipment to read AlphaScreen assay (AlphaScreen signal (Luminiscent/fluorescent). See table 11 and FIG. 2.

CSCs MiaPaca_2 = test: MTT test on pancreatic Cancer Stem Cells MiaPaca_2; type: cell-based; settings: Homo sapiens, MIA PaCa-2, read-out: ED50 CSCs MiaPaca_2
Excerpt: (§2) Two established cell lines derived from two different pancreatic adenocarcinomas: BxPC3 (reference ATCC® CRL-1687), mutated for CDKN2A, MAP2K4, SMAD4 and TP53; and MIA-PaCa-2 (reference ATCC® CRL-1420), mutated for k-RAS were used. These cells lines were maintained with Dulbecco's-Modified Eagle's Medium (DMEM) (Sigma-Aldrich, St. Louis, Mo., USA) supplemented with 10% fetal bovine serum (FBS) (Gibco, Carlsbad, Calif., USA) and 1% penicillin/streptomycin (P/S) (Sigma-Aldrich) in a 75 cm^2 culture flask (B D Falcon, Franklin Lakes, N.J.) unless otherwise indicated. All cells were grown at 37° C. with 5% CO2 in a humidified incubator (Steri-Cult CO2 Incubator, Thermo Electron Corporation, Waltham, Mass., USA). Media were changed every 48-72 hours and cultured cells with a maximum of 80% confluence were passed.
(§3) For the isolation of CSCs subpopulation we used the methodology described in WO 2016/020572.
(§4) The activity of the MDN-0090 was detected using pancreatic Cancer Stem Cell lines (MiaPaca-2 and BxPC3). For this purpose MTT test was used.

CSCs BxPC3 = test: MTT test on pancreatic Cancer Stem Cells BxPC3; type: cell-based; settings: Homo sapiens, BXPC-3, read-out: ED50 CSCs BxPC3
Excerpt: as §2, §3, §4

[2] = test system: BxPC3 tumor cell line xenografts; test: Antitumor activity in heterotopic xenografts, BxPC3; type: in vivo; settings: BxPC3 xenograft, NSG mice, 20 mg/kg ip three times a week for 50 days
Experimental: (§5) To evaluate the effect of MDN-0090 on tumor growth heterotopic xenografts were used for both BxPC3 and MIAPaca-2 tumor cell lines. Tumor formation was induced by subcutaneous injection of 5×10^6 cells/mouse in female NOD scid mice gamma (NOD.Cg-Prkdcscid II2rgtm1Wjl/SzJ, NSG) of eight weeks old. Animals (n=40, 10 per group) were housed and maintained at 20° C. to 24° C., 50% humidity a light-dark cycle of 14 to 10 h with food and water ad libitum. Tumors were grown to an average volume of 100 mm^3, after which they were randomly assigned as control groups (saline) and treated with MDN-0090 (20 mg/kg, dissolved in saline) injected ip three times a week for 50 days. Tumor growth was assessed twice weekly using a digital caliper and the tumor volume was calculated by the formula V=(length)^2×width×π/6.

[3] = test system: MIAPaca-2 tumor cell line xenografts; test: Antitumor activity in heterotopic xenografts, MIAPaca-2; type: in vivo; settings: MIAPaca-2 xenograft, NSG mice, 20 mg/kg ip three times a week for 50 days
Experimental: as §5

BxPC3 CSCs xenografts = test: Antitumor activity against CSCs induced tumors; type: in vivo; settings: BxPC3 CSCs xenograft, NSG mice, 10 mg/kg or 20 mg/kg ip three times a week for 52 days
Experimental: We evaluated the effect of MDN-0090 on CSCs induced tumors. We isolated and characterized the pancreatic CSCs from BxPC3 cell line using the methodology described previously (WO 2016/020572).
In vivo experiment was performed in male and female NOD scid gamma mice (NSG, NOD.Cg-Prkdcscid II2rgtm1Wjl/SzJ). All animals (n=10 per group) were maintained in a microventilated cage system with a 12-h light/dark cycle, and were manipulated in a laminar air-flow cabinet to keep on the specific pathogen-free conditions.
For the induction of xenografts tumors, mice were anesthetized by inhalation of isofluorane, inoculated with 5×10^4 BxPC3 CSCs by subcutaneously injections into the flank regions. Tumors were grown to an average volume of 100 mm^3, after which they were randomly assigned as control groups (saline) and treatment A with MDN-0090 (10 mg/kg, dissolved in saline) and treatment B (20 mg/kg, dissolved in saline) ip three times a week for 52 days. Tumor growth was assessed twice weekly using a digital caliper and the tumor volume was calculated by the formula V=(length)^2×width×π/6.

BxPC3 tumor cell line = test: In vivo tumorigenicity assay, BxPC3; settings: BxPC3 cells treated with MDN-0090 at IC50 for 24 hours before inoculation into NSG mice
Experimental: (§6) To evaluate the effect of MDN-0090 on the tumorigenicity ability of CSC-like cells heterotopic xenografts using both BxPC3 and MIAPaca-2 tumor cell lines were established. Firstly, we treated cells with MDN-0090 at IC50 for 24 hours and after that cells were inoculated into the animals. Pancreatic cancer non-treated cells were used as control.
(§7) Tumor formation was induced by subcutaneous injection of 1.5×10^4 in vitro treated or non-treated cells/mouse in NOD scid mice gamma (NOD.Cg-Prkdcscid II2rgtm1Wjl/SzJ, NSG). Animals (n=20, 10 per group) were housed and maintained at 20° C. to 24° C., 50% humidity a light-dark cycle of 14 to 10 h with food and water ad libitum. We observed the tumor growth every two days. Tumor growth was assessed using a digital caliper and the tumor volume was calculated by the formula V=(length)^2×width×π/6.

[4] = test system: MIAPaca-2 tumor cell line; test: In vivo tumorigenicity assay, MIAPaca-2; settings: MIAPaca-2 cells treated with MDN-0090 at IC50 for 24 hours before inoculation into NSG mice
Experimental: as §6, §7

[5] = read-out: ED50 Apoptosis (Caspase3_7)

EC50 (MiaPaca_2) [µM] | EC50 (BxPC3) [µM] | EC50 (MiaPaca_2 cell line) [µM] | Compound | EC50 (MiaPaca 2 cell line; [5]) [µM] | EC50 (MiaPaca 2 cell line; read-out: ED50 Citotoxicity) [µM] | EC50 (MiaPaca 2 cell line; read-out: ED50 Viability) [µM] | pERK1_2 (Fluorescence pERK1/2/fluorescence β-actine) (pERK1/2) | activity effect on HepG2 (in words) (HepG2) | IC50 (HepG2) [µM] | other results
– | – | – | Nc1ccn([C@@H]2O[C@H](CO)[C@@H](O)C2(F)F)c(=O)n1 [Gemcitabine] | – | – | – | – | – | – | IC50 [1]: 1900 nM
20.3 | 7.63 | 3.33 | Cc1cc(O)c(C(=O)c2c(C=O)c(O)cc3c2C(=O)CC(C)(C)O3)c(O)c1 [MDN-0089] | 29.7 | > 50 | > 50 | 0.22 | medium activity effect | 13.6 | –
8.84 | 4.67 | 5.27 | CC(C)=CCc1c(O)cc(O)c(C=O)c1C(=O)c1c(O)cc(C)cc1O [MDN-0090, 2,3′,5′,6-tetrahydroxy-2′-formyl-6′-(3-methyl-2-butenyl)-4-methyl-benzophenone] | 24.9 | > 50 | 17.3 | 0.18 | medium activity effect | 19.7 | IC50 (p-ERK; 24 h): 9.02 µM; IC50 (p-ERK): 6.12 µM; EC50 (CSCs MiaPaca_2; 12 hours): 20.8 µM; EC50 (CSCs MiaPaca_2; 24 hours): 14 µM; EC50 (CSCs MiaPaca_2; 48 hours): 19.6 µM; EC50 (CSCs MiaPaca_2; 72 hours): 2.18 µM; EC50 (CSCs BxPC3; 12 hours): 14.3 µM; EC50 (CSCs BxPC3; 24 hours): 17 µM; EC50 (CSCs BxPC3; 48 hours): 14 µM; EC50 (CSCs BxPC3; 72 hours): 10.3 µM; tumor size (tumor volume) [2]: reduces the size of tumors; tumor size (tumor volume) [3]: reduces the size of tumors; tumor size (tumor volume) (BxPC3 CSCs xenografts): decreased the size tumor; tumor formation (BxPC3 tumor cell line): reduces tumor formation; tumor formation [4]: reduces tumor formation
> 50 | > 50 | – | Cc1cc(O)c(C(=O)c2c(C=O)c(O)cc3c2C=CC(C)(C)O3)c(O)c1 [MDN-0091] | – | – | – | – | – | – | –
7.18 | 9.14 | 22.9 | COc1cc(O)c(C=O)c(C(=O)c2c(O)cc(C)cc2O)c1CC=C(C)C [MDN-0092] | > 50 | > 50 | > 50 | 0.29 | medium activity effect | 20.4 | –
6.47 | 8.7 | < 3.15 | COc1cc(O)c(C=O)c(C(=O)c2c(O)cc(C)c(Cl)c2O)c1CC=C(C)C [MDN-0093] | 18.4 | > 50 | 14.5 | 0.12 | high activity effect | 8.9 | –
> 50 | > 50 | – | COc1cc(O)c2oc3cc(C)cc(O)c3c(=O)c2c1CC=C(C)C [MDN-0094] | – | – | – | – | – | – | –
